Data: patent publication US9670247B2, “Contraceptive agents” (The University of Kansas, priority 2012, dated 2017)

Target: hERG (Homo sapiens, UniProt Q12809)
Conditions: not given

Sequence of hERG (Q12809 whole entry): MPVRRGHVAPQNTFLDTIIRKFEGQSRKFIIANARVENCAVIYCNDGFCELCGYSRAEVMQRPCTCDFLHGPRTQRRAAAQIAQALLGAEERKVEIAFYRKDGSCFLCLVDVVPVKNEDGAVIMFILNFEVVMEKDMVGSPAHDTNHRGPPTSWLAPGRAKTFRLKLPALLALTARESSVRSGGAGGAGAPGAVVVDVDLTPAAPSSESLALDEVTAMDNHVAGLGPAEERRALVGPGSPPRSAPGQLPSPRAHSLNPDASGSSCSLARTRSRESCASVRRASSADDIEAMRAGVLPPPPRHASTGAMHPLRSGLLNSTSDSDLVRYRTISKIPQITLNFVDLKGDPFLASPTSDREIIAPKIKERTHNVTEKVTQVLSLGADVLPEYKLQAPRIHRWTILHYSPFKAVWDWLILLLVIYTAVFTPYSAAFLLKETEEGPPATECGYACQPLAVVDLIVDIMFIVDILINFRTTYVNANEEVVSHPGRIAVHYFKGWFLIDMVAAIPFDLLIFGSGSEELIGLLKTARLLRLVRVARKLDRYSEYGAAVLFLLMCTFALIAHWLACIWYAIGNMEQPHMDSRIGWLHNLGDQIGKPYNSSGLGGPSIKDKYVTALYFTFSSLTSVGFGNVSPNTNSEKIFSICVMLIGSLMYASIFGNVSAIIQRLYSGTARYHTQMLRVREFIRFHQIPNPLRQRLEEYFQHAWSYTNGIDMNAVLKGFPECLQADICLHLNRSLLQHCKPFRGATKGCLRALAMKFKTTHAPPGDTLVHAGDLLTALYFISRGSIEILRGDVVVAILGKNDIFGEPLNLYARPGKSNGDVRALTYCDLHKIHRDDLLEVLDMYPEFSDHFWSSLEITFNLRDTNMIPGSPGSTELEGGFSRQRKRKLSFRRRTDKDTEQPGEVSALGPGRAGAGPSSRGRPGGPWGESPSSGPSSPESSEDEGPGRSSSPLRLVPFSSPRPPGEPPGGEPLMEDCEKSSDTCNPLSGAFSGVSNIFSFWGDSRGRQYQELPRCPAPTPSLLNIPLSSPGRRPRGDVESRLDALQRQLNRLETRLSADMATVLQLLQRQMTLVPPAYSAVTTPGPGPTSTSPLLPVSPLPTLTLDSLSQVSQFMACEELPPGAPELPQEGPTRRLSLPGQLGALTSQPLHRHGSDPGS

Row | Structure (SMILES) | effect on hERG
1 | C[C@@H]1O[C@@H](O[C@H]2C[C@@H](O)[C@]3(CO)[C@H]4[C@H](O)C[C@]5(C)[C@@H](C6=CC(=O)OC6)CC[C@]5(O)[C@@H]4CC[C@]3(O)C2)[C@H](O)[C@H](O)[C@H]1O [ouabain] | inhibited hERG activity

Test system: Na,K-ATPase α4 isoform
Conditions: higher than that of the ubiquitous α1 isoform; cited from earlier work

Row | Structure (SMILES) | affinity for ouabain of α4 relative to the α1 isoform
2 | C[C@@H]1O[C@@H](O[C@H]2C[C@@H](O)[C@]3(CO)[C@H]4[C@H](O)C[C@]5(C)[C@@H](C6=CC(=O)OC6)CC[C@]5(O)[C@@H]4CC[C@]3(O)C2)[C@H](O)[C@H](O)[C@H]1O [ouabain] | 10,000 fold

Test system: not given
Conditions: not given

Row | Structure (SMILES) | melting point [°C]
3 | COCO[C@@H]1[C@H]2OC(C)(C)O[C@H]2[C@H](O[C@H]2C[C@H]3OC(C)(C)OC[C@]34C3C(CC[C@]4(O)C2)[C@@]2(O)CC[C@H](C(O)CO)[C@@]2(C)C[C@H]3OCOC)O[C@H]1C (stereo partly drawn) [Compound 3, (3S,3aR,5R,5bR,9aR,11S,12aS,14bS)-3-(1,2-dihydroxyethyl)-5-(methoxymethoxy)-11-(((3aR,4R,6S,7S,7aR)-7-(methoxymethoxy)-2,2,6-trimethyltetrahydro-3aH-[1,3]dioxolo[4,5-c]pyran-4-yl)oxy)-3a,8,8-trimethylhexadecahydro-1H-cyclopenta[7,8]phenanthro[4,4a-d][1,3]dioxine-12a,14b-diol] | 119 to 121
4 | CC(C)[C@H](N)C(=O)O[C@H]1CC[C@@]2(C)C(=CCC3C2CC[C@@]2(C)C3CC[C@@H]2c2cn(Cc3ccccc3)nn2)C1 (stereo partly shown) | 195 to 197
5 | COCO[C@@H]1[C@H]2OC(C)(C)O[C@H]2[C@H](O[C@H]2C[C@H]3OC(C)(C)OC[C@]34C3C(CC[C@]4(O)C2)[C@@]2(O)CC[C@H](C#N)[C@@]2(C)C[C@H]3OCOC)O[C@H]1C (stereo partly drawn) [Compound 11, (3S,3aR,5R,5bR,9aR,11S,12aS,14bS)-12a,14b-dihydroxy-5-(methoxymethoxy)-11-(((3aR,4R,6S,7S,7aR)-7-(methoxymethoxy)-2,2,6-trimethyltetrahydro-3aH-[1,3]dioxolo[4,5-c]pyran-4-yl)oxy)-3a,8,8-trimethylhexadecahydro-1H-cyclopenta[7,8]phenanthro[4,4a-d][1,3]dioxine-3-carbonitrile] | 97 to 99
6 | COCO[C@H]1C[C@H]2OC(C)(C)OC[C@]23C2C(CC[C@]3(O)C1)[C@@]1(OCOC)CC[C@H](CO)[C@@]1(C)C[C@H]2OCOC (stereo partly drawn) [Compound 22, (3S,3aR,5R,5bR,9aR,11S,12aS,14bS)-3-(hydroxymethyl)-5,11,14b-tris(methoxymethoxy)-3a,8,8-trimethylhexadecahydro-1H-cyclopenta[7,8]phenanthro[4,4a-d][1,3]dioxin-12a-ol] | 154 to 158
7 | COC(=O)Cn1cc([C@H]2CCC3C4CC=C5C[C@@H](O)CC[C@]5(C)C4CC[C@@]32C)nn1 (stereo partly shown) | 221 to 223
8 | COCO[C@@H]1[C@H]2OC(C)(C)O[C@H]2[C@H](O[C@H]2C[C@H]3OC(C)(C)OC[C@]34C3C(CC[C@]4(O)C2)[C@@]2(O)CC[C@H](CO)[C@@]2(C)C[C@H]3OCOC)O[C@H]1C (stereo partly drawn) [Compound 10, (3S,3aR,5R,5bR,9aR,11S,12aS,14bS)-3-(hydroxymethyl)-5-(methoxymethoxy)-11-(((3aR,4R,6S,7S,7aR)-7-(methoxymethoxy)-2,2,6-trimethyltetrahydro-3aH-[1,3]dioxolo[4,5-c]pyran-4-yl)oxy)-3a,8,8-trimethylhexadecahydro-1H-cyclopenta[7,8]phenanthro[4,4a-d][1,3]dioxine-12a,14b-diol] | 126 to 129
9 | C[C@]12CCC3C(CC=C4C[C@@H](O)CC[C@@]43C)[C@@H]1CC[C@@H]2C1=CC(=O)OC1 (stereo in doubt) | 286 to 287
10 | COCO[C@H]1C[C@H]2OC(C)(C)OC[C@]23C2C(CC[C@]3(O)C1)[C@@]1(OCOC)CC[C@H](C=O)[C@@]1(C)C[C@H]2OCOC (stereo partly shown) | 129 to 135
